Assay results published in US12077503B2, “Substituted cyclic amides and their use as herbicides” (FMC CORPORATION, priority 2015, dated 2024).

Columns and labels:
Format in all cases: in vivo
[1] = test system: ryegrass, Italian (Italian ryegrass, Lolium multiflorum); experiment: Test A preemergence; conditions: Lolium multiflorum, pre-emergence, 240 h, Preemergence
Method in brief: (§1)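 Compounds were formulated in a non-phytotoxic solvent mixture with surfactant and applied as a preemergence directed soil spray after seeding, or sprayed postemergence over plants 2 to 10 cm tall at the one- to two-leaf stage. Evaluation after about 10 d compared treated with untreated controls, using a scale from 0 (no effect) to 100 (complete control).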

[2] = test system: giant foxtail (Setaria faberii); experiment: Test A preemergence; conditions: Setaria faberi, pre-emergence, 240 h, Preemergence
Method in brief: as §1

[3] = test system: barnyardgrass (Echinochloa crus-galli); experiment: Test A preemergence; conditions: Echinochloa crus-galli, pre-emergence, 240 h, Preemergence
Method in brief: as §1

[4] = test system: ragweed (common ragweed, Ambrosia elatior); experiment: Test A preemergence; conditions: Ambrosia artemisiifolia, pre-emergence, 240 h, Preemergence
Method in brief: as §1

Kochia (Kochia scoparia) [5] = experiment: Test A preemergence; conditions: Bassia scoparia, pre-emergence, 240 h, Preemergence
Method in brief: as §1

[6] = test system: pigweed (Amaranthus retroflexus); experiment: Test A preemergence; conditions: Amaranthus retroflexus, pre-emergence, 240 h, Preemergence
[7] = test system: ryegrass, Italian (Italian ryegrass, Lolium multiflorum); experiment: Test A postemergence; conditions: Lolium multiflorum, post-emergence, 240 h, Postemergence
Method in brief: as §1

[8] = test system: giant foxtail (Setaria faberii); experiment: Test A postemergence; conditions: Setaria faberi, post-emergence, 240 h, Postemergence
Method in brief: as §1

[9] = test system: barnyardgrass (Echinochloa crus-galli); experiment: Test A postemergence; conditions: Echinochloa crus-galli, post-emergence, 240 h, Postemergence
Method in brief: as §1

[10] = test system: wheat (Triticum aestivum); experiment: Test A postemergence; conditions: Triticum aestivum, post-emergence, 240 h, Postemergence
Method in brief: as §1

[11] = test system: ragweed (common ragweed, Ambrosia elatior); experiment: Test A postemergence; conditions: Ambrosia artemisiifolia, post-emergence, 240 h, Postemergence
Method in brief: as §1

Kochia (Kochia scoparia) [12] = experiment: Test A postemergence; conditions: Bassia scoparia, post-emergence, 240 h, Postemergence
Method in brief: as §1

[13] = test system: pigweed (Amaranthus retroflexus); experiment: Test A postemergence; conditions: Amaranthus retroflexus, post-emergence, 240 h, Postemergence
Method in brief: as §1

[14] = test system: Galium (catchweed bedstraw, Galium aparine); experiment: Test A postemergence; conditions: Galium, post-emergence, 240 h, Postemergence
Method in brief: as §1

[15] = test system: blackgrass (Alopecurus myosuroides); experiment: Test A postemergence; conditions: Alopecurus myosuroides, post-emergence, 240 h, Postemergence
Method in brief: as §1

corn (Zea mays) = experiment: Test A postemergence; conditions: Zea mays, post-emergence, 240 h, Postemergence
Method in brief: as §1

[16] = test system: ducksalad (Heteranthera limosa); experiment: Test B flooded paddy test; conditions: Heteranthera limosa, 360 h, Flood, 250 g ai/ha; visually evaluated after 13 to 15 d; read-out: Plant response rating, Ducksalad (0 to 100 scale where 0 is no effect and 100 is complete control)
Method in brief: (§2)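 Plants at 2-leaf stage flooded to 3 cm above soil, with compounds applied directly to paddy water and that depth maintained. Plants kept in greenhouse 13–15 d. Visual rating versus controls on a 0 (no effect) to 100 (complete control) scale.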

rice (Oryra sativa) = experiment: Test B flooded paddy test; conditions: Oryza sativa, 360 h, Flood, 250 g ai/ha; visually evaluated after 13 to 15 d; read-out: Plant response rating, Rice (0 to 100 scale where 0 is no effect and 100 is complete control)
Method in brief: as §2

[17] = test system: barnyardgrass (Echinochloa crus-galli); experiment: Test B flooded paddy test; conditions: Echinochloa crus-galli, 360 h, Flood, 250 g ai/ha; visually evaluated after 13 to 15 d; read-out: Plant response rating, Barnyardgrass (0 to 100 scale where 0 is no effect and 100 is complete control)
Method in brief: as §2

[18] = test system: sedge, umbrella (small-flower umbrella sedge, Cyperus difformis); experiment: Test B flooded paddy test; conditions: Cyperus difformis, 360 h, Flood, 250 g ai/ha; visually evaluated after 13 to 15 d; read-out: Plant response rating, Sedge, Umbrella (0 to 100 scale where 0 is no effect and 100 is complete control)
Method in brief: as §2

Cc1ccc([C@H]2CN(C)C(=O)[C@@H]2C(=O)Nc2ccc(F)nc2F)cc1 [Compound 1402]
pest or weed control at 31 g/ha ([1]; 31 g ai/ha, 0 to 100 scale where 0 is no effect and 100 is complete control, read-out: Ryegrass, Italian plant response rating): 0% | pest or weed control at 125 g/ha ([1]; 125 g ai/ha, 0 to 100 scale (0 no effect, 100 complete control), read-out: Plant response rating, Ryegrass, Italian): 0% | pest or weed control at 31 g/ha ([2]; 31 g ai/ha, 0 to 100 scale where 0 is no effect and 100 is complete control, read-out: Foxtail, Giant plant response rating): 100% | pest or weed control at 125 g/ha ([2]; 125 g ai/ha, 0 to 100 scale (0 no effect, 100 complete control), read-out: Plant response rating, Foxtail, Giant): 100% | pest or weed control at 31 g/ha ([3]; 31 g ai/ha, 0 to 100 scale where 0 is no effect and 100 is complete control, read-out: Barnyardgrass plant response rating): 100% | pest or weed control at 125 g/ha ([3]; 125 g ai/ha, 0 to 100 scale (0 no effect, 100 complete control), read-out: Plant response rating, Barnyardgrass): 90% | pest or weed control at 31 g/ha ([4]; 31 g ai/ha, 0 to 100 scale where 0 is no effect and 100 is complete control, read-out: Ragweed plant response rating): 30% | pest or weed control at 125 g/ha ([4]; 125 g ai/ha, 0 to 100 scale (0 no effect, 100 complete control), read-out: Plant response rating, Ragweed): 0% | pest or weed control at 31 g/ha (Kochia (Kochia scoparia) [5]; 31 g ai/ha, 0 to 100 scale where 0 is no effect and 100 is complete control, read-out: Kochia plant response rating): 20% | pest or weed control at 125 g/ha (Kochia (Kochia scoparia) [5]; 125 g ai/ha, 0 to 100 scale (0 no effect, 100 complete control), read-out: Plant response rating, Kochia): 80% | pest or weed control at 31 g/ha ([6]; 31 g ai/ha, 0 to 100 scale where 0 is no effect and 100 is complete control, read-out: Pigweed plant response rating): 20% | pest or weed control at 125 g/ha ([6]; 125 g ai/ha, 0 to 100 scale (0 no effect, 100 complete control), read-out: Plant response rating, Pigweed): 90% | pest or weed control at 31 g/ha ([7]; 31 g ai/ha, 0 is no effect, 100 is complete control, read-out: Ryegrass, Italian plant response rating (0 to 100 scale)): 0% | pest or weed control at 125 g/ha ([7]; 125 g ai/ha, visual injury after approx. 10 d, 0 to 100 scale, 0 no effect, 100 complete control, read-out: Plant response rating, Ryegrass, Italian): 0% | pest or weed control at 31 g/ha ([8]; 31 g ai/ha, 0 is no effect, 100 is complete control, read-out: Foxtail, Giant plant response rating (0 to 100 scale)): 50% | pest or weed control at 125 g/ha ([8]; 125 g ai/ha, visual injury after approx. 10 d, 0 to 100 scale, 0 no effect, 100 complete control, read-out: Plant response rating, Foxtail, Giant): 90% | pest or weed control at 31 g/ha ([9]; 31 g ai/ha, 0 is no effect, 100 is complete control, read-out: Barnyardgrass plant response rating (0 to 100 scale)): 80% | pest or weed control at 125 g/ha ([9]; 125 g ai/ha, visual injury after approx. 10 d, 0 to 100 scale, 0 no effect, 100 complete control, read-out: Plant response rating, Barnyardgrass): 90% | plant injury at 31 g/ha ([10]; 31 g ai/ha, 0 is no effect, 100 is complete control, read-out: Wheat plant response rating (0 to 100 scale)): 20% | plant injury at 125 g/ha ([10]; 125 g ai/ha, visual injury after approx. 10 d, 0 to 100 scale, 0 no effect, 100 complete control, read-out: Plant response rating, Wheat): 40% | pest or weed control at 31 g/ha ([11]; 31 g ai/ha, 0 is no effect, 100 is complete control, read-out: Ragweed plant response rating (0 to 100 scale)): 0% | pest or weed control at 125 g/ha ([11]; 125 g ai/ha, visual injury after approx. 10 d, 0 to 100 scale, 0 no effect, 100 complete control, read-out: Plant response rating, Ragweed): 20% | pest or weed control at 31 g/ha (Kochia (Kochia scoparia) [12]; 31 g ai/ha, 0 is no effect, 100 is complete control, read-out: Kochia plant response rating (0 to 100 scale)): 30% | pest or weed control at 125 g/ha (Kochia (Kochia scoparia) [12]; 125 g ai/ha, visual injury after approx. 10 d, 0 to 100 scale, 0 no effect, 100 complete control, read-out: Plant response rating, Kochia): 70% | pest or weed control at 31 g/ha ([13]; 31 g ai/ha, 0 is no effect, 100 is complete control, read-out: Pigweed plant response rating (0 to 100 scale)): 0% | pest or weed control at 125 g/ha ([13]; 125 g ai/ha, visual injury after approx. 10 d, 0 to 100 scale, 0 no effect, 100 complete control, read-out: Plant response rating, Pigweed): 0% | pest or weed control at 31 g/ha ([14]; 31 g ai/ha, 0 is no effect, 100 is complete control, read-out: Galium plant response rating (0 to 100 scale)): 60% | pest or weed control at 125 g/ha ([14]; 125 g ai/ha, visual injury after approx. 10 d, 0 to 100 scale, 0 no effect, 100 complete control, read-out: Plant response rating, Galium): 70% | pest or weed control at 31 g/ha ([15]; 31 g ai/ha, 0 is no effect, 100 is complete control, read-out: Blackgrass plant response rating (0 to 100 scale)): 0% | pest or weed control at 125 g/ha ([15]; 125 g ai/ha, visual injury after approx. 10 d, 0 to 100 scale, 0 no effect, 100 complete control, read-out: Plant response rating, Blackgrass): 50% | plant injury at 31 g/ha (corn (Zea mays); 31 g ai/ha, 0 is no effect, 100 is complete control, read-out: Corn plant response rating (0 to 100 scale)): 0% | Corn plant response rating (crop injury, 0 = no effect, 100 = complete kill) at 125 g/ha (corn (Zea mays); 125 g ai/ha, visual injury after approx. 10 d, 0 to 100 scale, 0 no effect, 100 complete control): 0% | pest or weed control at 250 g/ha [16]: 95% | pest or weed control at 250 g/ha (rice (Oryra sativa)): 0% | pest or weed control at 250 g/ha [17]: 90% | pest or weed control at 250 g/ha [18]: 0%
